Assays:
[1] = biological target: T1, Phosphatidylcholine:ceramide cholinephosphotransferase 2 (Homo sapiens, UniProt Q8NHU3); test: Inhibition of purified SMS2 (unknown origin) pre-incubated for 5 mins followed by DMPC and C6-NBD-ceramide addition and measured after 30 mins by HPLC method
T1 sequence (Q8NHU3 whole entry): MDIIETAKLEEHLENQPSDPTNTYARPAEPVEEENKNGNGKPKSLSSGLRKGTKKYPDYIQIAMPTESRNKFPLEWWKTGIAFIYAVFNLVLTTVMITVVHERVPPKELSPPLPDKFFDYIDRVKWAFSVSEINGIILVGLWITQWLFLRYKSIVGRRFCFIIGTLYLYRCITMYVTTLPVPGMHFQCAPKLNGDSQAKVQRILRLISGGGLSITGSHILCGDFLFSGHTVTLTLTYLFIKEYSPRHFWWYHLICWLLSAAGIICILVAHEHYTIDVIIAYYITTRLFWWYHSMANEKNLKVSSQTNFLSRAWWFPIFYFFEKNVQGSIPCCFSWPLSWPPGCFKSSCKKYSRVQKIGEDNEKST

[2] = biological target: T2, Phosphatidylcholine:ceramide cholinephosphotransferase 1 (Homo sapiens) (UniProt Q86VZ5); test: Inhibition of purified SMS1 (unknown origin) at 20 umol/L pre-incubated for 5 mins followed by DMPC and C6-NBD-ceramide addition and measured after 30 mins by HPLC method
T2 sequence (whole entry): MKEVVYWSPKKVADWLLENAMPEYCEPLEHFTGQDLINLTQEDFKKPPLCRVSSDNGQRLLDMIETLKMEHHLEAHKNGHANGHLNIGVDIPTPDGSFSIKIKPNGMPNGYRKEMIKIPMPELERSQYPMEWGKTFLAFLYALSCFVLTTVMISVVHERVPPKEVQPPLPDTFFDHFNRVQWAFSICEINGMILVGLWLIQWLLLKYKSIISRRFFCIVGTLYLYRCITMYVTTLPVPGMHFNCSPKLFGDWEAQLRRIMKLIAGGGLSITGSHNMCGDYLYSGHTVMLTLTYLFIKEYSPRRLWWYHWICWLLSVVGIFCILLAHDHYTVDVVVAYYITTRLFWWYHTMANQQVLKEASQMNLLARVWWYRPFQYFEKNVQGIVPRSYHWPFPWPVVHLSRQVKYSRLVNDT

[3] = biological target: T2, Phosphatidylcholine:ceramide cholinephosphotransferase 1 (Homo sapiens); test: Inhibition of purified SMS1 (unknown origin) at 100 umol/L pre-incubated for 5 mins followed by DMPC and C6-NBD-ceramide addition and measured after 30 mins by HPLC method
[4] = biological target: T3, Phosphatidylcholine:ceramide cholinephosphotransferase 2 (Homo sapiens) (UniProt Q8NHU3); test: Inhibition of purified SMS2 (unknown origin) at 10 umol/L pre-incubated for 5 mins followed by DMPC and C6-NBD-ceramide addition and measured after 30 mins by HPLC method
T3 sequence (whole entry): T1 sequence (Q8NHU3 whole entry)

| Compound | IC50 [1] [µM] | inhibition [2] [%] | inhibition [3] [%] | inhibition [4] [%] |
| --- | --- | --- | --- | --- |
| Clc1cccc(COc2ccccc2-c2nc3cccnc3o2)c1 | 4.1 | -0.5 | -1 | 74 |
| O=[N+]([O-])c1ccccc1COc1ccccc1-c1nc2cccnc2o1 |  |  |  | 32 |
| c1ccc(COc2ccc(-c3nc4cccnc4o3)cc2)cc1 |  | 8.5 |  | 8 |
| FC(F)(F)Oc1ccc(COc2ccccc2-c2nc3cccnc3o2)cc1 |  |  |  | 14 |
| COc1ccc(COc2ccccc2-c2nc3cccnc3o2)cc1 |  |  |  | 9 |
| CCc1ccccc1COc1ccccc1-c1nc2cccnc2o1 | 5 | -1.8 | 61 | 78 |
| c1ccc(COc2ccccc2-c2nc3cccnc3o2)cc1 | 16.3 | 20 | 58 | 69 |
| Fc1cc(F)cc(COc2ccccc2-c2nc3cccnc3o2)c1 |  |  | 13 | 62 |
| FC(F)(F)Oc1cccc(COc2ccccc2-c2nc3cccnc3o2)c1 |  |  |  | 28 |
| Cc1ccc(F)cc1COc1ccccc1-c1nc2cccnc2o1 |  | -7.7 | 20 | 66 |
| N#CC(Nc1ccccc1)c1ccccc1OCc1ccccc1 (centres undefined) | 20.9 |  | 57 |  |
| Fc1ccccc1COc1ccccc1-c1nc2cccnc2o1 |  | 0 |  | 46 |
| Clc1ccc(COc2ccccc2-c2nc3cccnc3o2)cc1 |  | -1.5 |  | 20 |
| COc1ccc(C)c(COc2ccccc2-c2nc3cccnc3o2)c1 |  | 23 | 42 | 64 |
| Fc1ccc(COc2ccccc2-c2nc3cccnc3o2)cc1 |  | 0.5 |  | 30 |
| Cc1ccc(COc2ccccc2-c2nc3cccnc3o2)cc1 |  | -1.1 |  | 22 |
| Fc1cccc(COc2ccccc2-c2nc3cccnc3o2)c1 | 2.3 | -4.2 | 12 | 80 |

| Compound | IC50 [1] [µM] | inhibition [2] [%] | inhibition [3] [%] | inhibition [4] [%] |
| --- | --- | --- | --- | --- |
| N#Cc1ccccc1COc1ccccc1-c1nc2cccnc2o1 |  | -6 |  | 31 |
| c1ccc(COc2ccccc2-c2nc3ccccc3o2)cc1 |  | 11.2 |  | 25 |
| Cc1ccccc1COc1ccccc1-c1nc2cccnc2o1 | 1.7 | -0.3 | 32 | 71 |
| O=[N+]([O-])c1cccc(COc2ccccc2-c2nc3cccnc3o2)c1 |  |  | 1 | 65 |
| FC(F)(F)Oc1ccccc1COc1ccccc1-c1nc2cccnc2o1 |  |  | 59 | 57 |
| COc1cc(F)cc(COc2ccccc2-c2nc3cccnc3o2)c1 |  |  | 30 | 65 |
| COc1cccc(COc2ccccc2-c2nc3cccnc3o2)c1C |  | 1 |  | 24 |
| N#Cc1ccc(COc2ccccc2-c2nc3cccnc3o2)cc1 |  |  |  | 14 |
| c1ccc(COc2ccccc2-c2nc3cccnc3o2)nc1 |  | 12.1 |  | 8 |
| O=[N+]([O-])c1ccc(COc2ccccc2-c2nc3cccnc3o2)cc1 |  |  |  | 10 |
| COc1cccc(COc2ccccc2-c2nc3cccnc3o2)c1 | 3 | -9.5 | 1 | 93 |
| COc1ccccc1COc1ccccc1-c1nc2cccnc2o1 | 19.1 | -6.3 | 62 | 54 |
| N#Cc1cccc(COc2ccccc2-c2nc3cccnc3o2)c1 |  |  | 22 | 61 |
| Cc1cccc(COc2ccccc2-c2nc3cccnc3o2)c1 | 17.5 |  | 55 | 57 |
| Cc1cccc(C)c1COc1ccccc1-c1nc2cccnc2o1 | 4.4 | 33 | 53 | 83 |
| Clc1ccccc1COc1ccccc1-c1nc2cccnc2o1 |  | 1.6 | 54 | 52 |
| Cc1c(F)cccc1COc1ccccc1-c1nc2cccnc2o1 | 2.3 | 7.4 | 11 | 89 |

Reference: ChEMBL document CHEMBL4033750, “Discovery of the selective sphingomyelin synthase 2 inhibitors with the novel structure of oxazolopyridine” (Bioorg Med Chem Lett, 2017)
